Here are results for two compounds from patent US9394250B2, “Substituted pyrrolidines as factor xia inhibitors for the treatment thromboembolic diseases” (ONO PHARMACEUTICAL CO., LTD., priority 2012, dated 2016).

What all share (format): biochemical
For assay [1], the target named is Human Factor XIa (Homo sapiens (Human), UniProt P03951). Put plainly: Factor XIa enzyme activity, chromogenic substrate S-2366. The note with it: purified human Factor XIa 0.1 U/mL, 300 μM S-2366, pH7.4; read-out: In vitro FXIa inhibitory activity IC50. As for the experimental part:
(§1) Inhibitory activities of compounds of the present invention against factor XIa, Xa, XIIa, IXa, VIIa, plasma kallikrein or thrombin were evaluated using appropriate purified proteases and synthetic substrates. The rate of hydrolysis of the chromogenic substrate by the relevant protease was continuously measured at 405 nm. Inhibitory activity against each enzyme was calculated as % inhibition using the equation described below. % Inhibition=[[(rate without compound)−(rate with compound)]/(rate without compound)]×100%. Each half maximal inhibitory concentration (IC50) value was determined by plotting the concentration of compound of the invention against the % inhibition. (1-1) Factor XIa Enzyme Activity
Human Factor XIa (Haematologic Technologies Inc.) activity was measured at an enzyme concentration of 0.1 U/mL in 150 mM NaCl, 5 mM KCl, 1 mg/mL PEG6000, 50 mM HEPES-NaOH (pH7.4) with 300 μM S-2366 (pyroGlu-Pro-Arg-pNA, Chromogenix).

The target of assay [2] is human thrombin (Homo sapiens (Human), UniProt P00734). Nature of the assay: Thrombin enzyme activity, chromogenic substrate S-2366. Conditions: human thrombin 0.12 U/mL, 300 μM S-2366, pH7.4; read-out: In vitro Thrombin inhibitory activity IC50. As to the method:
as §1
(§2) Human Factor Xa (American Diagnostica Inc.) and human thrombin (Sigma) activities were measured at the enzyme concentrations of 0.18 U/mL and 0.12 U/mL, respectively in the same buffer containing 150 mM NaCl, 2 mg/mL PEG6000, 50 mM Tris-HCl (pH7.4), except that the reactions were started with 300 μM S-2222 ([…], Chromogenix) and 300 μM S-2366, respectively.

Assay [3] deals with Human Factor Xa (Homo sapiens (Human), UniProt P00742). Nature of the assay: Factor Xa enzyme activity, chromogenic substrate S-2222. Conditions: human Factor Xa 0.18 U/mL, 300 μM S-2222, pH7.4; read-out: In vitro FXa inhibitory activity IC50. As for the experimental part: as §1, §2

Each structure is given as a SMILES string. Structures can show the parent of a compound that is named as a salt. Where only a bound is given, the exact number is not on record here.

Chain of Human Factor Xa (P00742 235-488): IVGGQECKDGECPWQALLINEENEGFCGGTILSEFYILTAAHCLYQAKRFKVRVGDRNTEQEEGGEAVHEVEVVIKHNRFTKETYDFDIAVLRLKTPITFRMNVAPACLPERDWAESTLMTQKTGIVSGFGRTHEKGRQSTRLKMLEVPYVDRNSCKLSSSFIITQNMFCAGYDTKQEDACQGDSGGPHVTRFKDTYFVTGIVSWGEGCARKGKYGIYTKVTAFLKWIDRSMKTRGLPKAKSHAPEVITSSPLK
Chain of Human Factor Xa (P00742 41-179 partner): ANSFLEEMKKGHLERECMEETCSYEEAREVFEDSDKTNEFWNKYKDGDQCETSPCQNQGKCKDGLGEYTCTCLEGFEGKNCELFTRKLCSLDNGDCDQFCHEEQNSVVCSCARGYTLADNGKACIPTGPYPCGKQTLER
Chain of Human Factor XIa (P03951 388-625): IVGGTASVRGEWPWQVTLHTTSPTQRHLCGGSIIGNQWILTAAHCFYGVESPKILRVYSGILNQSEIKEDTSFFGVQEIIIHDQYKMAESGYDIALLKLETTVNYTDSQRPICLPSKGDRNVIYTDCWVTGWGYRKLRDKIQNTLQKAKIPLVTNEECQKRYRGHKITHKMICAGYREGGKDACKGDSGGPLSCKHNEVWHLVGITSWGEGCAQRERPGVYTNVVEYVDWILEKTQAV
Chain of Human Factor XIa (P03951 19-387 partner): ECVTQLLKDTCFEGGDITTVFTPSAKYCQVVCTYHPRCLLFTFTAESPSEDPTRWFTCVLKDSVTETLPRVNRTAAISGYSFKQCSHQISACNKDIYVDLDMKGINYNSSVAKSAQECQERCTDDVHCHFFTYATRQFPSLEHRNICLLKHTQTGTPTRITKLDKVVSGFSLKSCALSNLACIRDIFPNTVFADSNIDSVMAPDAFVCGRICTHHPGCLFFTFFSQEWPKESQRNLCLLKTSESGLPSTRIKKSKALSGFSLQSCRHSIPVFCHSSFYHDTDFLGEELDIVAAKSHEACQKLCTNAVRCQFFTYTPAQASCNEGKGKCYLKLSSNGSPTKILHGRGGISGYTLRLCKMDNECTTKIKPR

With `COC(=O)Nc1ccc(-c2[nH]c([C@@H]3C[C@H](C4CCN(S(C)(=O)=O)CC4)CN3C(=O)C3CCN(C(=N)N)CC3)nc2Cl)cc1` [Example 71, methyl [4-(2-{(2S,4R)-1-[(1-carbamimidoyl-4-piperidinyl)carbonyl]-4-[1-(methylsulfonyl)-4-piperidinyl]-2-pyrrolidinyl}-4-chloro-1H-imidazol-5-yl)phenyl]carbamate dihydrochloride], the IC50 in assay [1] is 0.0022 µM; in assay [2], 94 µM; in assay [3], above 100 µM.

For the compound `COC(=O)Nc1ccc(-c2[nH]c([C@@H]3C[C@H](C4CCN(S(C)(=O)=O)CC4)CN3C(=O)c3ccc(NC(=N)N)cc3)nc2Cl)cc1` [Example 79, methyl [4-(2-{(2S,4R)-1-(4-carbamimidamidobenzoyl)-4-[1-(methylsulfonyl)-4-piperidinyl]-2-pyrrolidinyl}-4-chloro-1H-imidazol-5-yl)phenyl]carbamate bis(trifluoroacetate)], the IC50 in assay [1] was 0.0065 µM; in assay [2] it was 40 µM; in assay [3], above 100 µM.
